Measurements as given in paper PMC5561102, “Fusion protein analysis reveals the precise regulation between Hsp70 and Hsp100 during protein disaggregation” (Scientific Reports, 2017).

Experiments:
Experiment in all cases: UV difference spectrum after size exclusion chromatography
Details in all cases: 3 mM ATP, 55 °C 60 min incubation, pH 7.5, 5 mM MgCl2; binding stoichiometry, not an affinity
TDnaK [1] = target: T1, TDnaK (Thermus thermophilus, UniProt Q56235, K69A)
T1 construct: gene dnaK; full length, untagged (plasmid pMDK6), expressed in E. coli; C-terminus Asp615
T1 sequence (Q56235 whole entry K69A): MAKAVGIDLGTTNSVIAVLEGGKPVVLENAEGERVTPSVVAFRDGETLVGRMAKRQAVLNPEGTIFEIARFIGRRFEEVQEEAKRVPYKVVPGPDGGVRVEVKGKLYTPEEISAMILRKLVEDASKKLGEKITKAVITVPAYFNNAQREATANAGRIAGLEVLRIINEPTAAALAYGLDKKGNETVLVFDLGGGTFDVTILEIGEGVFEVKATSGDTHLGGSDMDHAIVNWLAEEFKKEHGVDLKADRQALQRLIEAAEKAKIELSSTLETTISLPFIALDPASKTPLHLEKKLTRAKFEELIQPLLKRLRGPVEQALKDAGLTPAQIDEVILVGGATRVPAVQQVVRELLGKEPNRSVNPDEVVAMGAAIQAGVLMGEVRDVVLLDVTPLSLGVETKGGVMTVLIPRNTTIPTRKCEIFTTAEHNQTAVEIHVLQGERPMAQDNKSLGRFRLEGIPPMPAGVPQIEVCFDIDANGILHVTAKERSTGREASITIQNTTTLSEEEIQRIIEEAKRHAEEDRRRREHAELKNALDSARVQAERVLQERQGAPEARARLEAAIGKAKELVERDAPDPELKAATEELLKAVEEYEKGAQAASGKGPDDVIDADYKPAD

TDnaK [2] = target: T2, TDnaK (Thermus thermophilus, UniProt Q56235)
T2 construct: gene dnaK; full length, untagged (plasmid pMDK6), expressed in E. coli; C-terminus Asp615
T2 sequence (Q56235 whole entry): as the sequence (Q56235 whole entry K69A) above, with A69K counted along it

TDnaK [3] = target: T3, TDnaK (Thermus thermophilus, UniProt Q56235, T195A)
T3 construct: gene dnaK; full length, untagged (plasmid pMDK6), expressed in E. coli; C-terminus Asp615
T3 sequence (Q56235 whole entry T195A): as the sequence (Q56235 whole entry K69A) above, with A69K, T195A counted along it

bound ATP per TDnaK (TDnaK [1]): 0.89 mol/mol
bound ATP per TDnaK (TDnaK [2]): 0.70 mol/mol
bound ATP per TDnaK (TDnaK [3]): 0.64 mol/mol
Compound: Nc1ncnc2c1ncn2[C@@H]1O[C@H](COP(=O)(O)OP(=O)(O)OP(=O)(O)O)[C@@H](O)[C@H]1O [ATP]
